Experimental findings from US20240417387A1, “SULFONYLPIPERAZINYL COMPOUNDS FOR TREATMENT OF BACTERIAL INFECTIONS” (Hoffmann-La Roche Inc., priority 2021, published 2024) are described below.

The target in data set [1] is Escherichia coli UDP-2,3-diacylglucosamine hydrolase (LpxH) (Escherichia coli (strain K12), UniProt P43341). Description: Enzymatic IC50 assay of Escherichia coli LpxH (UMP/CMP-Glo luminescence). Type of data set: biochemical. Conditions: Enzymatic IC50 against Escherichia coli LpxH; read-out: IC50 (converted). Summed up:
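LpxH (2 nM) preincubated 10 min at room temperature with compound (100 μM to 1.7 nM) in Tris-HCl pH7.5 buffer with 2.5 mM MnCl2, then reacted with 5 μM UDP-DAG for 20 min. Reaction heat-stopped at 95° C.; released UMP converted to ATP and read by luciferase luminescence (UMP/CMP-Glo).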

The test system of data set [2] is Klebsiella pneumonia ATCC 43816. The experiment in a line: Minimal Inhibitory Concentration (MIC) broth dilution assay, K. pneumonia ATCC 43816. Type of data set: cell-based. Conditions: Klebsiella pneumoniae, ATCC43816, 20 hours at 35° C., CAMHB, read-out: MIC K. p ATCC 43816. The essentials:
(§1)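 Broth microdilution with twofold compound series in cation-adjusted Mueller Hinton broth, inoculum 5×10^5 CFU/mL, applied to each strain. Plates incubated 20 h at 35 °C in ambient air. MIC […] recorded as the lowest concentration with no visible growth, read by eye.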
(In broth dilution the organism is exposed to a series of concentrations in liquid medium.)

Data set [3] relates to Escherichia coli ATCC 25922. The experiment in a line: Minimal Inhibitory Concentration (MIC) broth dilution assay, E. coli ATCC 25922. Type of data set: cell-based. Particulars: Escherichia coli, ATCC25922, 20 h, read-out: MIC E. coli ATCC 25922. Summed up:
as §1

Data set [4] in a line: Human microsome stability assay. Type of data set: in vitro ADME. Conditions: human liver microsomes 0.5 mg/mL, 37° C., pH 7.4, NADPH regenerating system. Summed up: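 Compound […] with 0.5 mg/mL human liver microsomal protein in 100 mM potassium phosphate pH 7.4, 10 min preincubation at 37 °C, started with NADPH regenerating system. Sampled 0–30 min, remaining compound by LC-MS/MS; clearance binned low <7, medium 7–16.2, high >16.2 mL/min/kg.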
A general note: Liver microsomes are vesicles of endoplasmic reticulum, rich in cytochrome P450 enzymes.

Data set [5] concerns Escherichia coli BW 25113. Description: Minimal Inhibitory Concentration (MIC) broth dilution assay, E. coli BW 25113. Type of data set: cell-based. Conditions: Escherichia coli, BW25113, 20 hours at 35° C., CAMHB, read-out: MIC E. coli K-12 BW 25113. Summed up:
as §1

For orientation: IC50 means the point on the concentration scale where inhibition reaches its midpoint. Usually MIC stands for the least concentration at which growth counts as inhibited.

Structures are written as SMILES. Converted amounts (≈) assume the structure as drawn.

Sequence of Escherichia coli UDP-2,3-diacylglucosamine hydrolase (LpxH) (P43341 whole entry): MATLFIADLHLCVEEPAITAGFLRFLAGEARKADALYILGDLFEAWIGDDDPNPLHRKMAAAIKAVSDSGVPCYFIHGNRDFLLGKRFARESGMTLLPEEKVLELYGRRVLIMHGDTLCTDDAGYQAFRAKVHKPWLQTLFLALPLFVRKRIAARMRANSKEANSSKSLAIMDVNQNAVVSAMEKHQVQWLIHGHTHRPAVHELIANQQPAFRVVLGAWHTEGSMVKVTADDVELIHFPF

Take `NCCN(CCN)C(=O)[C@H]1CC[C@H](C(F)(F)c2cc(Cl)nc(N3CCN(S(=O)(=O)c4ccc(N5C[C@H](N)CC5=O)cc4)CC3)c2)CC1` [Example 043]: the IC50 in data set [1] was 35.9 nM. Also, the MIC came out at 1.1 µg/mL (≈ 1.58 µM) in data set [2], 0.57 µg/mL (≈ 0.817 µM) in data set [3] and 1.1 µg/mL (≈ 1.58 µM) in data set [5]. Further, the “Clearance of Human microsome” value in data set [4] worked out at 9.94 mL/min/kg.
Regarding `NCCCN(CCCN)C(=O)[C@H]1CC[C@H](C(F)(F)c2cc(Cl)nc(N3CCN(S(=O)(=O)c4ccc(N5C[C@H](N)CC5=O)cc4)CC3)c2)CC1` [Example 044, Trans-N,N-bis(3-aminopropyl)-4-[[2-chloro-6-[4-[4-[(4R)-4-amino-2-oxo-pyrrolidin-1-yl]phenyl]sulfonylpiperazin-1-yl]-4-pyridyl]-difluoro-methyl]cyclohexanecarboxamide], in data set [1], the IC50 is 48.3 nM. The MIC amounted to 1.2 µg/mL (≈ 1.65 µM) in data set [2], 0.62 µg/mL (≈ 0.855 µM) in data set [3] and 1.2 µg/mL (≈ 1.65 µM) in data set [5]. Further, in data set [4], the “Clearance of Human microsome” value is 7.30 mL/min/kg.
Turning to `NCCCN(CCCN)C(=O)C12CCC(C(F)(F)c3cc(Cl)nc(N4CCN(S(=O)(=O)c5ccc(N6C[C@H](N)CC6=O)cc5)CC4)c3)(CC1)CC2` [Example 045, N,N-bis(3-aminopropyl)-4-[[2-chloro-6-[4-[4-[(4R)-4-amino-2-oxo-pyrrolidin-1-yl]phenyl]sulfonylpiperazin-1-yl]-4-pyridyl]-difluoro-methyl]bicyclo[2.2.2]octane-1-carboxamide], in data set [1], the IC50 was 18.6 nM. Moreover, the MIC was 0.62 µg/mL (≈ 0.825 µM) in data set [2], 0.62 µg/mL (≈ 0.825 µM) in data set [3] and 1.2 µg/mL (≈ 1.6 µM) in data set [5]. Besides, the “Clearance of Human microsome” value in data set [4] amounted to 8.79 mL/min/kg.
`NCCN(CCN)CCCNC(=O)[C@H]1CC[C@H](C(F)(F)c2cc(Cl)nc(N3CCN(S(=O)(=O)c4ccc(N5C[C@H](N)CC5=O)cc4)CC3)c2)CC1` [Example 047]: the IC50 in data set [1] is 6.63 nM. Moreover, the MIC came to 0.3 µg/mL (≈ 0.398 µM) in data set [2], 0.35 µg/mL (≈ 0.464 µM) in data set [3] and 0.3 µg/mL (≈ 0.398 µM) in data set [5]. The “Clearance of Human microsome” value in data set [4] is 6.15 mL/min/kg.
In the case of `N[C@@H]1CC(=O)N(c2ccc(S(=O)(=O)N3CCN(c4cc(C(F)(F)[C@H]5CC[C@H](C(=O)N6C[C@H](N)C[C@H](N)C6)CC5)cc(Cl)n4)CC3)cc2)C1` [Example 048, Trans-(4R)-4-amino-1-[4-[4-[6-chloro-4-[[4-cis-(3,5-diaminopiperidine-1-carbonyl)cyclohexyl]-difluoro-methyl]-2-pyridyl]piperazin-1-yl]sulfonylphenyl]pyrrolidin-2-one], the IC50 in data set [1] is 18.3 nM. The MIC in data set [2], in data set [3] and in data set [5] was 1.2 µg/mL (≈ 1.69 µM) in each case. In data set [4], the “Clearance of Human microsome” value is reported as 12.06 mL/min/kg.
Turning to `N[C@@H]1C[C@H](N)CN(CCCNC(=O)[C@H]2CC[C@H](C(F)(F)c3cc(Cl)nc(N4CCN(S(=O)(=O)c5ccc(N6C[C@H](N)CC6=O)cc5)CC4)c3)CC2)C1` [Example 049, Trans-4-[[2-chloro-6-[4-[4-[(4R)-4-amino-2-oxo-pyrrolidin-1-yl]phenyl]sulfonylpiperazin-1-yl]-4-pyridyl]-difluoro-methyl]-N-[3-[cis-3,5-diamino-1-piperidyl]propyl]cyclohexanecarboxamide], the IC50 in data set [1] is 9.13 nM. In addition, the MIC in data set [2] is 1.2 µg/mL (≈ 1.57 µM); in data set [3], 1.2 µg/mL (≈ 1.57 µM); in data set [5] it was 0.6 µg/mL (≈ 0.783 µM). Moreover, the “Clearance of Human microsome” value in data set [4] is 7.38 mL/min/kg.
As to `N[C@@H]1CC(=O)N(c2ccc(S(=O)(=O)N3CCN(c4cc(C(F)(F)[C@H]5CC[C@H](C(=O)NNC(=O)C6CCNCC6)CC5)cc(Cl)n4)CC3)cc2)C1` [Example 051, Trans-N′-[4-[[2-chloro-6-[4-[4-[(4R)-4-amino-2-oxo-pyrrolidin-1-yl]phenyl]sulfonylpiperazin-1-yl]-4-pyridyl]-difluoro-methyl]cyclohexanecarbonyl]piperidine-4-carbohydrazide], the IC50 in data set [1] was 12.2 nM. In addition, the figures for the MIC in data set [2], in data set [3] and in data set [5] were 4.6 µg/mL (≈ 6.24 µM), 4.6 µg/mL (≈ 6.24 µM) and 2.3 µg/mL (≈ 3.12 µM), respectively. For the same molecule, in data set [4], the “Clearance of Human microsome” value is 8.70 mL/min/kg.
For the molecule `NC(CO)CNC(=O)[C@H]1CC[C@H](C(F)(F)c2cc(Cl)nc(N3CCN(S(=O)(=O)c4ccc(N5C[C@H](N)CC5=O)cc4)CC3)c2)CC1` (stereo partly drawn) [Example 052, Trans-N-(2-amino-3-hydroxy-propyl)-4-[[2-chloro-6-[4-[4-[(4R)-4-amino-2-oxo-pyrrolidin-1-yl]phenyl]sulfonylpiperazin-1-yl]-4-pyridyl]-difluoro-methyl]cyclohexanecarboxamide], in data set [1], the IC50 is less than 2.92 nM. For the same molecule, the MIC in data set [2], in data set [3] and in data set [5] was 0.56 µg/mL (≈ 0.818 µM) in each case. In data set [4], the “Clearance of Human microsome” value came to 7.41 mL/min/kg.
Turning to `NCCCNC(=O)C1CC2C(C1)C2C(F)(F)c1cc(Cl)nc(N2CCN(S(=O)(=O)c3ccc(N4C[C@H](N)CC4=O)cc3)CC2)c1` (stereo partly drawn) [Example 055, N-(3-aminopropyl)-6-[[2-chloro-6-[4-[4-[(4R)-4-amino-2-oxo-pyrrolidin-1-yl]phenyl]sulfonylpiperazin-1-yl]-4-pyridyl]-difluoro-methyl]bicyclo[3.1.0]hexane-3-carboxamide], in data set [1], the IC50 is 9.01 nM. Further, the MIC in data set [2] was 0.55 µg/mL (≈ 0.826 µM); in data set [3] it was 0.85 µg/mL (≈ 1.28 µM); in data set [5], 0.55 µg/mL (≈ 0.826 µM). Also, the “Clearance of Human microsome” value in data set [4] turned out to be 8.58 mL/min/kg.
As to `NCCCNC(=O)[C@H]1CC[C@H](C(F)(F)c2cc(Cl)nc(N3CCN(S(=O)(=O)c4ccc(N5C[C@H](N)CC5=O)cc4)CC3)c2)CC1` [Example 056, Trans-N-(3-aminopropyl)-4-[[2-chloro-6-[4-[4-[(4R)-4-amino-2-oxo-pyrrolidin-1-yl]phenyl]sulfonylpiperazin-1-yl]-4-pyridyl]-difluoro-methyl]cyclohexanecarboxamide], the IC50 in data set [1] is 5.99 nM. The MIC in data set [2] came out at 1.1 µg/mL (≈ 1.65 µM); in data set [3], 1.2 µg/mL (≈ 1.8 µM); in data set [5], 1.1 µg/mL (≈ 1.65 µM). In addition, the “Clearance of Human microsome” value in data set [4] is listed as 11.37 mL/min/kg.
With `NCC1CN(C(=O)[C@H]2CC[C@H](C(F)(F)c3cc(Cl)nc(N4CCN(S(=O)(=O)c5ccc(N6C[C@H](N)CC6=O)cc5)CC4)c3)CC2)C1` [Example 057], in data set [1], the IC50 was 2.94 nM. The minimal inhibitory concentration (MIC) in data set [2], in data set [3] and in data set [5] was 1.1 µg/mL (≈ 1.62 µM) throughout. Besides, in data set [4], the “Clearance of Human microsome” value worked out at 6.15 mL/min/kg.
`NCCCNC(=O)[C@H]1CC[C@H](C(F)(F)c2cc(Cl)nc(N3CCN(S(=O)(=O)c4ccc(N5C[C@@H](CO)OC5=O)cc4)CC3)c2)CC1` [Example 058, Trans-N-(3-aminopropyl)-4-[[2-chloro-6-[4-[4-[(5S)-5-(hydroxymethyl)-2-oxo-oxazolidin-3-yl]phenyl]sulfonylpiperazin-1-y1]-4-pyridyl]-difluoro-methyl]cyclohexanecarboxamide]: the IC50 in data set [1] is less than 2.92 nM. For the same molecule, the values for the minimum inhibitory concentration (MIC) in data set [2], in data set [3] and in data set [5] were 1.1 µg/mL (≈ 1.61 µM), 1.1 µg/mL (≈ 1.61 µM) and 0.29 µg/mL (≈ 0.423 µM), respectively. Also, the “Clearance of Human microsome” value in data set [4] is recorded as 8.04 mL/min/kg.
